{
  "source": "patent US20240345094A1",
  "about": "“DOUBLE FRAGMENTATION ISOBARIC TAGGING” (Saint Louis University, priority 2023, published 2024)",
  "tested_on": "Bovine aortic endothelial cells",
  "assay": "Changes in thiol metabolism upon γ-glutamyl-cysteine synthetase inhibition (6-plex tagged LC-MS of cell lysates)",
  "format": "cell-based",
  "conditions": "250 μM BSO for 16 hours vs reduced-serum media control",
  "method": "Cell culture and lysis: Bovine aortic endothelial cells between passage number 7 and 10 were cultured to confluency in 6 cm plates with Dulbecco's modified eagle medium (DMEM) supplemented with 10% fetal bovine serum (FBS) at 37° C. and 5% CO2. Cell media was swapped with DMEM supplemented with 2% FBS and 250 μM BSO. Control plates were swapped to DMEM with 2% FBS. All plates were lysed after 16 hours as previously described (Filla, L. A., et al., Anal Bioanal Chem 2019, 411 (24), 6399-6407). Briefly, the media was removed and the cells were rapidly rinsed with 1 mL of phosphate-buffered saline. Cells were lysed with the addition of 500 μL of cold 80/20 MeOH/H2O containing 100 mM formic acid and 5 μM of D4 homocysteine as an internal standard. Plates were placed on a dry ice-ethanol bath and the cell contents were collected, then centrifuged at 21,100×g for three minutes. The supernatant was immediately collected and stored on dry ice until derivatization.\nThiol Derivatization: Thiol metabolite stocks were created as individual 500 μM vials with 50/50 H2O/MeOH containing 20 mM formic acid and stored at −20° C. to minimize degradation. Lower concentration stocks were produced by further dilution and derivatized immediately. For cell lysate reactions, 100 μL of the lysate was used for each reaction. Thiol metabolites were added to 100 μL of 100 mM ammonium bicarbonate pH 8. An isotopic iodide tag was then immediately added (100 μL, 100 μM) and left at room temperature to react for 16 hours to ensure a complete reaction. All iodide tags and reactions were handled in the dark to prevent degradation. After the reaction was completed, the samples were mixed with the other isotope variants, dried in a vacuum centrifuge, and reconstituted to 100 μL in the starting mobile phase conditions.\nLiquid Chromatography: Fused silica capillary (Polymicro Technologies, Phoenix, AZ) was used to fabricate columns with an inner diameter of 50 μm as previously described (Edwards, J. L., et al, Journal of Chromatography A 2007, 1172 (2), 127-134). Briefly, 50 μm inner diameter capillary was cut to 25 cm, a photopolymerized frit placed 30 mm from the end, then a tip pulled with a Sutter P2000 micropipette puller and etched in 50% HF. The capillary bed was packed to 20 cm with Atlantis silica HILIC 3 μm particles (Waters Corp, Milford, MA). After equilibration the capillary was cut to 17.5 cm for analysis. Flow was delivered by a Thermo Vanquish LC (Thermo Fisher Scientific, Waltham, MA) connected to a stainless steel tee to split the flow. A 50 μm×100 cm open capillary was used as the split to direct 115 nL of the total flow and 4 nL injections to the capillary column (split ratio 1:1500 for bulk flow of 175 μL/min and injection of 6 μL). The split ratio was determined by calculating flow through the capillary based on the experimental dead time and column dimensions. Mobile phase A was pure acetonitrile and mobile phase B was 25 mM ammonium acetate in 80/20 (water/ACN) with 0.05% acetic acid as an additive. The gradient is supplied in Table 1 below.\nMS Analysis: A Q-Exactive mass spectrometer (Thermo Fisher Scientific, Waltham, MA) was used for all analyses. An MS^1 survey scan operated at a resolution of 17.5K with an ion injection time of 50 ms and AGC of 1e^6 for m/z 250-650. […] These MS^2 scans operated at a resolution of 140K with an ion injection time of 200 ms, AGC of 1e^5, and the optimized collision energy determined for each analyte. […]",
  "note": "Entries after “also recorded” stand apart in the source; their conditions may differ.",
  "data": [
    {"compound": "CCCCS(=N)(=O)CCC(N)C(=O)O", "note": "(centres unmarked) [BSO, Buthionine sulfoximine]", "values": [
      {"measurement": "GSH level change", "setting": "n=3, FIG. 5B", "value": "Significant decreases; also recorded: glutathione depletion was observed"},
      {"measurement": "cysteinyl-glycine level change", "setting": "n=3, FIG. 5B", "value": "Significant decreases"},
      {"measurement": "Glutamyl-cysteine level change", "setting": "n=3, near the limit of detection", "value": "did not change significantly"},
      {"measurement": "cysteine level change", "setting": "n=3, trended upward", "value": "did not change"},
      {"measurement": "homocysteine level change", "setting": "n=3, trended upward", "value": "did not change"}
    ]}
  ]
}
